From patent US20120101095A1, “ALKOXY-THIENOPYRIMIDINES AS TGF-BETA RECEPTOR KINASE MODULATORS” (priority 2009, published 2012)

target: T1, GST-ALK5 (Homo sapiens, UniProt P36897); test: In-vitro (enzyme) kinase assay, 384-well flashplate, GST-SMAD2 substrate; type: biochemical; details: 31.2 nM GST-ALK5, 439 nM GST-SMAD2, 3 mM ATP, 30° C., 45 min
T1 sequence (P36897 34-503): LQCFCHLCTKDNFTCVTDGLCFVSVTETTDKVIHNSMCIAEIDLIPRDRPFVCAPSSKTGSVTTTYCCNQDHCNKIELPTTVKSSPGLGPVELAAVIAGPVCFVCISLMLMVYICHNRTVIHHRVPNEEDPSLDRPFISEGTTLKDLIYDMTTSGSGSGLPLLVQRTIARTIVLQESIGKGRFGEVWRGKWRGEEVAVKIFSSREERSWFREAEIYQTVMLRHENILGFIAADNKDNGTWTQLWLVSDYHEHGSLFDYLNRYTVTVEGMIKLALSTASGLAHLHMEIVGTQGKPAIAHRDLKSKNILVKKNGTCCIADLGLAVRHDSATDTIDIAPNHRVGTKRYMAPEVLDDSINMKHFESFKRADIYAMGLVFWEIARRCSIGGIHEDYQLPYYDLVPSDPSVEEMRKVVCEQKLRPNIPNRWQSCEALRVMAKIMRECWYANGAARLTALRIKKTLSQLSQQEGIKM
Description: In-Vitro (Enzyme) Assay for Determination of the Efficacy of Inhibitors of the Inhibition of TGF-Beta-Mediated Effects
The kinase assay was carried out as 384-well flashplate assay. 31.2 nM of GST-ALK5, 439 nM of GST-SMAD2 and 3 mM of ATP (with 0.3 μCi of ^33P-ATP/well) were incubated in a total volume of 35 μl (20 mM of HEPES, 10 mM of MgCl2, 5 mM of MnCl2, 1 mM of DTT, 0.1% of BSA, pH 7.4) without or with test substance (5-10 concentrations) at 30° C. for 45 min. The reaction was stopped using 25 μl of 200 mM EDTA solution, filtered with suction at room temperature after 30 min, and the wells were washed with 3 times 100 μl of 0.9% NaCl solution. Radioactivity was measured in the TopCount. The IC50 values were calculated using RS1 (Table 1). Above and below, all temperatures were indicated in ° C.

SMILES	IC50 [nM]
Cc1ncsc1CCOc1nc(-c2cccc(Cl)c2)c2c(N)c(C(N)=O)sc2n1 [No 51, 5-Amino-4-(3-chloro-phenyl)-2-[2-(4-methyl-thiazol-5-yl)-ethoxy]-thieno[2,3-d]pyrimidine-6-carboxylic acid amide]	< 100
COCCOc1nc(-c2cccc(C(F)(F)F)c2)c2c(N)c(C(N)=O)sc2n1 [No 16, 5-Amino-2-(2-methoxy-ethoxy)-4-(3-trifluoromethyl-phenyl)-thieno[2,3-d]pyrimidine-6-carboxylic acid amide]	500 to 1000
C=C(C)CCOc1nc(-c2cccc(C(F)(F)F)c2)c2c(N)c(C(N)=O)sc2n1 [No 17, 5-Amino-2-(3-methyl-but-3-enyloxy)-4-(3-trifluoromethyl-phenyl)-thieno[2,3-d]pyrimidine-6-carboxylic acid amide]	100 to 500
NC(=O)c1sc2nc(OC/C=C/CO)nc(-c3cccc(Cl)c3)c2c1N [No 71, 5-Amino-4-(3-chloro-phenyl)-2-((E)-4-hydroxy-but-2-enyloxy)-thieno[2,3-d]pyrimidine-6-carboxylic acid amide]	< 100
NC(=O)c1sc2nc(OC3CCC(O)C3)nc(-c3cccc(Cl)c3)c2c1N (stereo not drawn) [No 64, 5-Amino-4-(3-chloro-phenyl)-2-(3-hydroxy-cyclopentyloxy)-thieno[2,3-d]pyrimidine-6-carboxylic acid amide]	100 to 500
NC(=O)c1sc2nc(OCCO)nc(-c3cccc(C(F)(F)F)c3)c2c1N [No 15, 5-Amino-2-(2-hydroxy-ethoxy)-4-(3-trifluoromethyl-phenyl)-thieno[2,3-d]pyrimidine-6-carboxylic acid amide]	500 to 1000
CC(C)(C)OCCOc1nc(-c2cccc(Cl)c2)c2c(N)c(C(N)=O)sc2n1 [No 11, 5-Amino-2-(2-tert-butoxy-ethoxy)-4-(3-chloro-phenyl)-thieno[2,3-d]pyrimidine-6-carboxylic acid amide]	100 to 500
Cc1ccc(-c2nc(OCc3ccncc3)nc3sc(C(N)=O)c(N)c23)o1 [No 30, 5-Amino-4-(5-methyl-furan-2-yl)-2-(pyridin-4-ylmethoxy)-thieno[2,3-d]pyrimidine-6-carboxylic acid amide]	500 to 1000
NC(=O)c1sc2nc(OCC3CCC3)nc(-c3cccc(Cl)c3)c2c1N [No 9, 5-Amino-4-(3-chloro-phenyl)-2-cyclobutylmethoxy-thieno[2,3-d]pyrimidine-6-carboxylic acid amide]	100 to 500
NC(=O)c1sc2nc(OC[C@H](O)CO)nc(-c3cccc(Cl)c3)c2c1N [No 50, 5-Amino-4-(3-chloro-phenyl)-2-((R)-2,3-dihydroxy-propoxy)-thieno[2,3-d]pyrimidine-6-carboxylic acid amide]	100 to 500
C=CCOc1nc(-c2cccc(Cl)c2)c2c(N)c(C(N)=O)sc2n1 [No 3, 2-Allyloxy-5-amino-4-(3-chloro-phenyl)-thieno[2,3-d]pyrimidine-6-carboxylic acid amide]	< 100
N#CCCOc1nc(-c2cccc(Cl)c2)c2c(N)c(C(N)=O)sc2n1 [No 72, 5-Amino-4-(3-chloro-phenyl)-2-(2-cyano-ethoxy)-thieno[2,3-d]pyrimidine-6-carboxylic acid amide]	< 100
Cc1cccc(-c2nc(OCc3cn(C)cn3)nc3sc(C(N)=O)c(N)c23)n1 [No 40, 5-Amino-2-(1-methyl-1H-imidazol-4-ylmethoxy)-4-(6-methyl-pyridin-2-yl)-thieno[2,3-d]pyrimidine-6-carboxylic acid amide]	< 100
Cc1cccc(-c2nc(OCCN3CCCC3=O)nc3sc(C(N)=O)c(N)c23)n1 [No 53, 5-Amino-4-(6-methyl-pyridin-2-yl)-2-[2-(2-oxo-pyrrolidin-1-yl)-ethoxy]-thieno[2,3-d]pyrimidine-6-carboxylic acid amide]	100 to 500
Cn1nccc1COc1nc(-c2cccc(Cl)c2)c2c(N)c(C(N)=O)sc2n1 [No 47, 5-Amino-4-(3-chloro-phenyl)-2-(2-methyl-2H-pyrazol-3-ylmethoxy)-thieno[2,3-d]pyrimidine-6-carboxylic acid amide]	< 100
Cc1ccc(-c2nc(OCc3cccnc3)nc3sc(C(N)=O)c(N)c23)o1 [No 31, 5-Amino-4-(5-methyl-furan-2-yl)-2-(pyridin-3-ylmethoxy)-thieno[2,3-d]pyrimidine-6-carboxylic acid amide]	100 to 500
NC(=O)c1sc2nc(OCC#CCO)nc(-c3cccc(Cl)c3)c2c1N [No 59, 5-Amino-4-(3-chloro-phenyl)-2-(4-hydroxy-but-2-ynyloxy)-thieno[2,3-d]pyrimidine-6-carboxylic acid amide]	< 100
Cc1ccc(-c2nc(OCc3cnn(C)c3)nc3sc(C(N)=O)c(N)c23)o1 [No 24, 5-Amino-4-(5-methyl-furan-2-yl)-2-(1-methyl-1H-pyrazol-4-ylmethoxy)-thieno[2,3-d]pyrimidine-6-carboxylic acid amide]	< 100
Cn1ccc(COc2nc(-c3cccc(Cl)c3)c3c(N)c(C(N)=O)sc3n2)n1 [No 46, 5-Amino-4-(3-chloro-phenyl)-2-(1-methyl-1H-pyrazol-3-ylmethoxy)-thieno[2,3-d]pyrimidine-6-carboxylic acid amide]	< 100
Cc1ccc(-c2nc(OCc3ccccn3)nc3sc(C(N)=O)c(N)c23)o1 [No 38, 5-Amino-4-(5-methyl-furan-2-yl)-2-(pyridin-2-ylmethoxy)-thieno[2,3-d]pyrimidine-6-carboxylic acid amide]	100 to 500
Cc1cccc(-c2nc(OCCn3cccn3)nc3sc(C(N)=O)c(N)c23)n1 [No 27, 5-Amino-4-(6-methyl-pyridin-2-yl)-2-(2-pyrazol-1-yl-ethoxy)-thieno[2,3-d]pyrimidine-6-carboxylic acid amide]	< 100
NC(=O)c1sc2nc(OC[C@H]3C[C@@H]3CO)nc(-c3cccc(Cl)c3)c2c1N [No 60, 5-Amino-4-(3-chloro-phenyl)-2-((1S,2S)-2-hydroxymethyl-cyclopropylmethoxy)-thieno[2,3-d]pyrimidine-6-carboxylic acid amide]	< 100
NC(=O)c1sc2nc(OCC3(CO)CC3)nc(-c3cccc(Cl)c3)c2c1N [No 65, 5-Amino-4-(3-chloro-phenyl)-2-(1-hydroxymethyl-cyclopropylmethoxy)-thieno[2,3-d]pyrimidine-6-carboxylic acid amide]	100 to 500
CNC(=O)CCCOc1nc(-c2cccc(Cl)c2)c2c(N)c(C(N)=O)sc2n1 [No 70, 5-Amino-4-(3-chloro-phenyl)-2-(3-methylcarbamoyl-propoxy)-thieno[2,3-d]pyrimidine-6-carboxylic acid amide]	100 to 500
Cc1cccc(-c2nc(OCCO)nc3sc(C(N)=O)c(N)c23)n1 [No 26, 5-Amino-2-(2-hydroxy-ethoxy)-4-(6-methyl-pyridin-2-yl)-thieno[2,3-d]pyrimidine-6-carboxylic acid amide]	< 100
NC(=O)c1sc2nc(OC[C@@H]3CCCN3)nc(-c3cccc(Cl)c3)c2c1N [No 76, 5-Amino-4-(3-chloro-phenyl)-2-((S)-1-pyrrolidin-2-ylmethoxy)-thieno[2,3-d]pyrimidine-6-carboxylic acid amide]	> 1000
COc1nc(-c2cccc(C(F)(F)F)c2)c2c(N)c(C(N)=O)sc2n1 [No 5, 5-Amino-2-methoxy-4-(3-trifluoromethyl-phenyl)-thieno[2,3-d]pyrimidine-6-carboxylic acid amide]	100 to 500
